Data from US11859208B2, “Methods of treating cancer using cell based therapies” (Emory University, priority 2016, dated 2024).
Entries after “also recorded” stand apart in the source; their conditions may differ.

Tests used:
[1] = system: E.G7-OVA cells; test: OVA-expressing lymphoma model: adoptive transfer of T cells expanded with the compounds; type: in vivo, mouse; conditions: OT-I, OT-II and B6 T cells expanded 3 days with compound, injected intravenously on day 7 of tumor growth
Procedure: Mice were injected subcutaneously with 5×10^5 E.G7-OVA cells which were allowed to grow for 7 days until a palpable tumor formed. During this period, OT-I, OT-II, and B6 T cells were expanded with CD3/CD28 beads in the presence of IL-2 and the indicated compounds for 3 days. On day 7 of tumor growth, mice were injected intravenously with a combination of expanded OT-I, OT-II, and B6 T cells (2×10^6 OT-I, 1×10^6 OT-II, and 2×10^6 B6 cells) or 2×10^6 B6 T cells as a control. Mice were then monitored for tumor growth which was calculated as (L×W2)/2.

[2] = system: DLBCL patient T cells; test: DLBCL patient T cell expansion for 14 days with CD3/CD28 beads and IL-2; type: cell-based, human
[3] = system: senescent T cells from a patient with lymphoma; test: 10 day in vitro expansion of senescent lymphoma patient T cells with anti-CD3/CD28 beads, flow cytometric analysis; type: cell-based, human; conditions: for fraction of senescent T cells that lacked both CD27 and CD28: control 55.2%; for numbers of effector memory T cells (Tem): 10-day cultures; for in vitro expansion of senescent T cells: anti CD3/CD28 beads, single agents or in combination
Procedure: Monocytes were depleted from the T cell sample, as monocytes are known to inhibit T cell expansion in cultures containing anti-CD3/CD28 beads. The effect of a range of idelalisib concentrations were compared alone and in combination with 3 uM VIP peptide antagonist (VIPhyb) or 1 ug/ml mast cell chymase, an enzyme that degrades endogenous VIP on T cell activation, differentiation and proliferation. Numbers of viable T cells were measured during a 10 day in vitro cultures as well as the T cell differentiation and activation profiles, focusing on the relative numbers of T cells with a senescent phenotype in which co-stimulatory receptors CD27 and CD28 are both absent (CD27− CD28−), to an activated phenotype, in which either CD27, CD28, or both co-stimulatory receptors are present (CD27+CD28+).
Aliquots of frozen patient apheresis products or PBMC from ficolled whole blood were rapidly thawed and rested overnight in complete RPMI 1640 supplemented with 10% fetal bovine serum, 100 U/mL penicillin, 100 μg/mL streptomycin, and 50 μM 2-mercaptoethanol (complete media). The following day, red blood cells were removed from apheresis products by ficoll gradient. The leukocytes were then enriched for T cells using an EasySep human T cell enrichment kit according to manufacturer's instructions. Cells were plated in 200 μL of complete media in each well of a 96 well flat-bottom plate. Compounds were added at the indicated concentrations, and the DMSO concentration was normalized to 0.1% for all wells. Anti-CD3/CD28 beads were added at a 1:1 bead:cell ratio. On day 7 post-stimulation, cells from each treatment were transferred to new media. Fresh compounds and beads were then added, and the cells were cultured for an additional 3 days. On day 10 post-initial stimulation, the beads were removed, and the cells were stained for flow cytometric analysis.
Cells were washed twice in PBS. The cells were also stained using a fixable viability dye. Surface markers were then stained by adding fluorochrome-conjugated antibodies to CD3, CD4, CD8, CD27, CD28, CD45RA, CD45RO, PD-1, and CCR7. To assess proliferation, half the cells were evaluated for expression of Ki67. Ki67 staining was performed using a FoxP3 intracellular staining kit. Just prior to running samples, Accucheck counting beads were added to each tube. Samples were acquired on a BD FACS Aria, and analysis was performed using FlowJo software. Viable cells were used in the analysis. The absolute numbers of cells was calculated for each population according to instructions provided by the manufacturer of the Accucheck counting beads.

[4] = cited from earlier work
[5] = system: Bcl-2 in lymphoma patient T cells; test: Bcl-2 expression in patient T cell expansion cultures (SDS-PAGE, membrane probing); type: cell-based, human; conditions: lysates on days 7 and 14, actin loading control
Procedure: Protein lysates from patient T cell expansion cultures were prepared on days 7 and 14. Samples were run on an SDS-PAGE gel prior to transfer to a nitrocellulose membrane. The membrane was then probed for the pro-survival Bcl-2 protein, stripped, and then re-probed for actin as a loading control.

[6] = cited from earlier work; remark: listed apart in the source
[7] = system: luciferase B6 splenic T cells; test: One-way mixed lymphocyte reaction (MLR), T-cell proliferation stimulated by alloantigen; type: cell-based, mouse; conditions: for T-cell proliferation in MLR: luciferase B6 splenic T cells, 3 days with irradiated FVB splenocytes, daily addition, 0-10 mmol/L
Procedure: Proliferation of luciferase B6 splenic T cells cultured for 3 days in MLR with irradiated FVB splenocytes, with daily addition of VIP and/or VIPhyb to achieve the concentrations shown (0-10 mmol/L).
To explore the role of VIP signaling in allo-immune responses, one-way mixed lymphocyte reactions (MLR) were performed containing VIP and/or the antagonistic VIPhyb peptide.

[8] = system: T-cells from the patient with relapsed lymphoma; test: Sorted T cells of a relapsed lymphoma patient cultured with anti-CD3/anti-CD28 beads (Ki67, PD-1 flow cytometry); type: cell-based, human; conditions: for T-cell proliferation in subsets lacking CD27 or CD28: sorted subsets, anti-CD3/CD28 beads
Excerpt: Using high-speed cell sorting subsets of T-cells were isolated defined by their levels of CD27 and CD28 expression from the patient with relapsed lymphoma and a healthy control. CD3 positive T-cells with each of the four phenotypes defined by CD27 and CD28 expression were sorted and cultured in vitro in the presence of anti-CD3/anti-CD28 beads. While total T-cells from healthy donors had 100% expression of the Ki67 proliferation marker following four days of culture, the corresponding total T-cell population from the patient with anergic T-cells following treatment for lymphoma had only 90% of T-cells expressing the Ki67 marker.
Following the daily addition of 3 uM VIPhyb to these cultures, the proportion of Ki67 positive T-cells from the anergic lymphoma patient was increased to 100%. […] In contrast, the T-cell subsets lacking expression of either CD27 or CD28 or both markers had impaired proliferated response when incubated with the anti-CD3/CD28 beads.

[9] = inclusion during T cell activation

| Molecule | therapeutic efficacy of expanded mouse T cells (tumor growth) [1] | frequency of CD27+CD28+ cells [2] | frequency of CD27-CD28- cells [2] | numbers of effector memory T cells (Tem) [3] | in vitro expansion of senescent T cells [3] | expression of Bcl-2 [5] | T-cell proliferation in MLR [7] | T-cell proliferation in subsets lacking CD27 or CD28 [8] | other results |
| --- | --- | --- | --- | --- | --- | --- | --- | --- | --- |
| CC[C@H](Nc1ncnc2[nH]cnc12)c1nc2cccc(F)c2c(=O)n1-c1ccccc1 [idelalisib, (S)-2-(1-(9H-purin-6-ylamino)propyl)-5-fluoro-3-phenylquinazolin-4(3H)-one] | enhances their therapeutic efficacy | increases | decreasing | increased | significantly expanded | increased |  |  | number of viable T cells obtained [2, 9]: increases; proportion of naive and central memory cells [2, 9]: increases; fraction of senescent T cells that lacked both CD27 and CD28 ([3]; 10 nM idelalisib): 16.1%; proportion of T cells co-expressing CD27 and CD28 ([3]; idelalisib 1 uM or 100 nM, compared to control cultures with no added drug): significantly increased; adverse signs and symptoms in treated patients ([4]; human, in vivo): auto immune-like signs and symptoms including colitis and rash; anti-cancer responses after drug treatment has stopped ([4]; human, in vivo): continued anti-cancer responses; T-cell activation in patients with CLL ([4]; idelalisib treatment): increased T-cell activation |
| VIP: (SEQ ID NO: 12) HSDAVFTDNYTRLRKQMAVKKYLNSILN, endogenous polypeptide |  |  |  |  |  |  | decreased Luciferase T-cell proliferation in a dose-dependent manner |  | half-life in vivo [6]: less than two |
| VIPhyb: VIP receptor antagonist, hybrid peptide of neurotensin and VIP, (SEQ ID NO: 1) KPRRPYTDNYTRLRKQMAVKKYLNSILN | enhances their therapeutic efficacy | increases | decreasing | increased | significantly expanded | increased | augmented in vitro T-cell proliferation; also recorded: augmented T cell proliferation in vitro; also recorded: increased T-cell proliferation | augmented T-cell proliferation | fraction of senescent T cells that lacked both CD27 and CD28 ([3]; 3 uM VIPhyb): 35.7%; effect on the suppression of T-cell proliferation by VIP ([7]; MLR with VIP and VIPhyb): mitigated the inhibitory effect of the native VIP peptide on T-cell proliferation; also recorded: reversed the suppressive effect of VIP in MLR; PD-1 expression ([8]; 3 uM VIPhyb, compared with control cultures without VIP antagonist): decreased levels of PD-1 expression; proportion of Ki67 positive T-cells ([8]; daily addition of 3 uM VIPhyb, total T-cells of anergic lymphoma patient, anti-CD3/anti-CD28 beads, 90% without VIPhyb): 100% |
| mast cell chymase: an enzyme that degrades endogenous VIP; human CMA1 (protein, UniProt P23946 22-247, looked up) Chymase: IIGGTECKPHSRPYMAYLEIVTSNGPSKFCGGFLIRRNFVLTAAHCAGRSITVTLGAHNITEEEDTWQKLEVIKQFRHPKYNTSTLHHDIMLLKLKEKASLTLAVGTLPFPSQFNFVPPGRMCRVAGWGRTGVLKPGSDTLQEVKLRLMDPQACSHFRDFDHNLQLCVGNPRKTKSAFKGDSGGPLLCAGVAQGIVSYGRSDAKPPAVFTRISHYRPWINQILQAN |  |  |  |  | significantly expanded |  |  |  | fraction of senescent T cells that lacked both CD27 and CD28 ([3]; 1 μg per ml mast cell chymase): 37.4% |
| IL 12: IL-12 added to T cell cultures with anti-CD3/CD28 beads (protein, UniProt P29459 23-219; P29460 23-328, looked up) Interleukin-12 subunit alpha: RNLPVATPDPGMFPCLHHSQNLLRAVSNMLQKARQTLEFYPCTSEEIDHEDITKDKTSTVEACLPLELTKNESCLNSRETSFITNGSCLASRKTSFMMALCLSSIYEDLKMYQVEFKTMNAKLLMDPKRQIFLDQNMLAVIDELMQALNFNSETVPQKSSLEEPDFYKTKIKLCILLHAFRIRAVTIDRVMSYLNAS Interleukin-12 subunit beta: IWELKKDVYVVELDWYPDAPGEMVVLTCDTPEEDGITWTLDQSSEVLGSGKTLTIQVKEFGDAGQYTCHKGGEVLSHSLLLLHKKEDGIWSTDILKDQKEPKNKTFLRCEAKNYSGRFTCWWLTTISTDLTFSVKSSRGSSDPQGVTCGAATLSAERVRGDNKEYEYSVECQEDSACPAAEESLPIEVMVDAVHKLKYENYTSSFFIRDIIKPDPPKNLQLKPLKNSRQVEVSWEYPDTWSTPHSYFSLTFCVQVQGKSKREKKDRVFTDKTSATVICRKNASISVRAQDRYYSSSWSEWASVPCS |  |  |  |  |  |  |  | significant impact in increasing the proliferation fraction of T-cells that were CD28 negative but not those that were CD27 negative |  |
